Assays:
[1] = system: PC-3 cells; assay: Cell Proliferation Assay (Cell Titer Glo), PC-3 cell line; assay type: cell-based; settings: Homo sapiens, PC-3, Cell Proliferation Assay, PC3; read-out: CPEC50 PC3
Summary of the method: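 PC-3 cells, 1000 cells/well, left to adhere 3-5 h, then exposed for 3 days at 37° C to compounds as 1:3 serial dilutions from 500× DMSO stocks diluted in growth medium. Medium then replaced with fresh medium and viability read by Cell Titer Glo luminescence.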

[2] = biological target: T1, PDK1 kinase (Homo sapiens, UniProt O15530); assay: PDK1 Kinase Alpha Screen Assay; assay type: biochemical; settings: PDK1 Kinase Alpha Screen Assay; read-out: PDK1 IC50
T1 sequence (O15530 1-556): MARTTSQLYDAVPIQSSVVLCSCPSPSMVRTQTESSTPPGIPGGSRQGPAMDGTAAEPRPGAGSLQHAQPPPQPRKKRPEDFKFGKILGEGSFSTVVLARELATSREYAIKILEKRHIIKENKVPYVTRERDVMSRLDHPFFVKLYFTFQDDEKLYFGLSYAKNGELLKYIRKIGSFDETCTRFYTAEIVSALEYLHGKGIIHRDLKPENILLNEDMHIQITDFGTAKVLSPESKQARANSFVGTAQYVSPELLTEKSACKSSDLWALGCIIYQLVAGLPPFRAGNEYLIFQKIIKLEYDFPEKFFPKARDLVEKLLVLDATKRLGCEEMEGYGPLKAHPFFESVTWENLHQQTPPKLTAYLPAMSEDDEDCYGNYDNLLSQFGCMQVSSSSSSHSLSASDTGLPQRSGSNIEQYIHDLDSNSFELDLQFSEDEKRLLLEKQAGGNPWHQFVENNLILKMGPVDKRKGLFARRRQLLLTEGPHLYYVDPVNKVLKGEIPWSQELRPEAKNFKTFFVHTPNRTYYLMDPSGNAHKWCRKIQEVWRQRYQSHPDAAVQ
Summary of the method: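 PDK1 phosphorylated 50 nM biotinylated PDK1-4 peptide with 10 uM ATP in Tris pH 7.5, 10 mM MgCl2, 2 mM DTT, 2.5% DMSO for 3-18 hours. After EDTA stop, phosphopeptide was detected by AlphaScreen using phospho-(Ser/Thr) PKA substrate antibody with protein A/streptavidin beads, read after overnight incubation.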

Row | Compound | EC50 [1] [µM] | IC50 [2] [µM]
1 | NS(=O)(=O)c1ccc(Nc2ncc3c(-c4cn[nH]c4)ccc(OC4CCNCC4)c3n2)cc1 [Compound 586, 4-(8-(piperidin-4-yloxy)-5-(1H-pyrazol-4-yl)quinazolin-2-ylamino)benzensulfonamide] | 5 to 10 | 5 to 10
2 | COc1cc(Nc2ncc3ccc(OC4CCNCC4)cc3n2)cc(C(F)(F)F)c1 [Compound 587, N-(3-methoxy-5-(trifluoromethyl)phenyl)-7-(piperidin-4-yloxy)quinazolin-2-amine] | < 5 | < 5
3 | Fc1ccc(Nc2ncc3ccc(OC4CCNCC4)cc3n2)cc1Br [Compound 589, N-(3-bromo-4-fluorophenyl)-7-(piperidin-4-yloxy)quinazolin-2-amine] | < 5 | < 5
4 | Fc1cc(Nc2ncc3ccc(OC4CCNCC4)cc3n2)ccc1N1CCOCC1 [Compound 593, N-(3-fluoro-4-morpholinophenyl)-7-(piperidin-4-yloxy)quinazolin-2-amine] | < 5 | < 5
5 | Clc1cc(Nc2ncc3ccc(OC4CCNCC4)cc3n2)ccc1N1CCOCC1 [Compound 594, N-(3-chloro-4-morpholinophenyl)-7-(piperidin-4-yloxy)quinazolin-2-amine] | < 5 | < 5
6 | O=C(c1ccc(Nc2ncc3c(Cl)ccc(OC4CCNCC4)c3n2)cc1)N1CCOCC1 [Compound 595, (4-(5-chloro-8-(piperidin-4-yloxy)quinazolin-2-ylamino)phenyl)(morpholino)methanone] | 5 to 10 | < 5
7 | Fc1cc(Nc2ncc3ccc(OC4CCNCC4)cc3n2)ccc1Br [Compound 596, N-(4-bromo-3-fluorophenyl)-7-(piperidin-4-yloxy)quinazolin-2-amine] | < 5 | < 5
8 | Fc1cc(Nc2ncc3c(Cl)ccc(OC4CCNCC4)c3n2)ccc1N1CCOCC1 [Compound 597, 5-chloro-N-(3-fluoro-4-morpholinophenyl)-8-(piperidin-4-yloxy)quinazolin-2-amine] | 5 to 10 | < 5
9 | Cn1cc(-c2ccc(Nc3ncc4ccc(OC5CCNCC5)cc4n3)cc2F)cn1 [Compound 598, N-(3-fluoro-4-(1-methyl-1H-pyrazol-4-yl)phenyl)-7-(piperidin-4-yloxy)quinazolin-2-amine] | 5 to 10 | < 5
10 | CC(C)NC(=O)c1ccc(Nc2ncc3c(Cl)ccc(OC4CCNCC4)c3n2)cc1 [Compound 599, 4-(5-chloro-8-(piperidin-4-yloxy)quinazolin-2-ylamino)-N-isopropylbenzamide] | < 5 | < 5
11 | Clc1ccc(OC2CCNCC2)c2nc(Nc3cccc(N4CCOCC4)c3)ncc12 [Compound 601, 5-chloro-N-(3-morpholinophenyl)-8-(piperidin-4-yloxy)quinazolin-2-amine] | 5 to 10 | < 5
12 | Clc1cc(Nc2ncc3c(Cl)ccc(OC4CCNCC4)c3n2)ccc1N1CCOCC1 [Compound 602] | < 5 | < 5
13 | O=C(NC1CC1)c1ccc(Nc2ncc3c(Cl)ccc(OC4CCNCC4)c3n2)cc1 [Compound 604, 4-(5-chloro-8-(piperidin-4-yloxy)quinazolin-2-ylamino)-N-cyclopropylbenzamide] | < 5 | < 5
14 | O=S(=O)(c1ccc(Nc2ncc3c(Cl)ccc(OC4CCNCC4)c3n2)cc1)N1CCOCC1 [Compound 606, 5-chloro-N-(4-(morpholinosulfonyl)phenyl)-8-(piperidin-4-yloxy)quinazolin-2-amine] | < 5 | < 5
15 | O=C(c1ccc(Nc2ncc3c(Cl)ccc(OC4CNC4)c3n2)cc1)N1CCOCC1 [Compound 608, (4-(8-(azetidin-3-yloxy)-5-chloroquinazolin-2-ylamino)phenyl)(morpholino)methanone] | 5 to 10 | < 5
16 | Clc1cc(Nc2ncc3c(Cl)ccc(OC4CNC4)c3n2)ccc1N1CCOCC1 [Compound 611, 8-(azetidin-3-yloxy)-5-chloro-N-(3-chloro-4-morpholinophenyl)quinazolin-2-amine] | < 5 | < 5
17 | O=C(NC1CC1)c1ccc(Nc2ncc3c(Cl)ccc(OC4CNC4)c3n2)cc1 [Compound 613, 4-(8-(azetidin-3-yloxy)-5-chloroquinazolin-2-ylamino)-N-cyclopropylbenzamide] | < 5 | < 5
18 | CC(C)NS(=O)(=O)c1ccc(Nc2ncc3c(Cl)ccc(OC4CNC4)c3n2)cc1 [Compound 615, 4-(8-(azetidin-3-yloxy)-5-chloroquinazolin-2-ylamino)-N-isopropylbenzenesulfonamide] | < 5 | < 5
19 | Clc1ccc(OC2CCNCC2)c2nc(Nc3cccc(-c4cc[nH]n4)c3)ncc12 [Compound 617, N-(3-(1H-pyrazol-3-yl)phenyl)-5-chloro-8-(piperidin-4-yloxy)quinazolin-2-amine] | 5 to 10 | < 5
20 | NS(=O)(=O)c1ccc(Nc2ncc3ccccc3n2)cc1 [Compound 618, 4-(quinazolin-2-ylamino)benzenesulfonamide] | 5 to 10 | < 5
21 | CC(C)N1CCC(Oc2cc3nc(Nc4ccc(N5CCOCC5)cc4)ncc3cc2-c2nccs2)CC1 [Compound 619, 7-(1-isopropylpiperidin-4-yloxy)-N-(4-morpholinophenyl)-6-(thiazol-2-yl)quinazolin-2-amine] | < 5 | < 5
22 | CC(C)N1CCC(Oc2cc3nc(Nc4ccc(N5CCOCC5)cc4)ncc3cc2Br)CC1 [Compound 620, 6-bromo-7-(1-isopropylpiperidin-4-yloxy)-N-(4-morpholinophenyl)quinazolin-2-amine] | < 5 | < 5

Second part, the compound after the results:

Row | EC50 [1] [µM] | IC50 [2] [µM] | Compound
23 | < 5 | < 5 | NC(=O)c1cc(Nc2ncc3ccc(OC4CCNCC4)cc3n2)cc(C(F)(F)F)c1 [Compound 588, 3-(7-(piperidin-4-yloxy)quinazolin-2-ylamino)-5-(trifluoromethyl)benzamide]
24 | < 5 | < 5 | CC(C)NC(=O)c1ccc(Nc2ncc3ccc(OC4CCNCC4)cc3n2)cc1 [Compound 590, N-isopropyl-4-(7-(piperidin-4-yloxy)quinazolin-2-ylamino)benzamide]
25 | 5 to 10 | < 5 | Fc1ccc(Nc2ncc3ccc(OC4CCNCC4)cc3n2)cc1-c1cnoc1 [Compound 592, N-(4-fluoro-3-(isoxazol-4-yl)phenyl)-7-(piperidin-4-yloxy)quinazolin-2-amine]
26 | < 5 | < 5 | Fc1cccc(Nc2ncc3c(Cl)ccc(OC4CCNCC4)c3n2)c1 [Compound 600, 5-chloro-N-(3-fluorophenyl)-8-(piperidin-4-yloxy)quinazolin-2-amine]
27 | < 5 | < 5 | CC(C)NS(=O)(=O)c1ccc(Nc2ncc3c(Cl)ccc(OC4CCNCC4)c3n2)cc1 [Compound 603, 4-(5-chloro-8-(piperidin-4-yloxy)quinazolin-2-ylamino)-N-isopropylbenzenesulfonamide]
28 | 5 to 10 | < 5 | Clc1ccc(OC2CCNCC2)c2nc(Nc3ccc(N4CCOCC4)cc3)ncc12 [Compound 605, 5-chloro-N-(4-morpholinophenyl)-8-(piperidin-4-yloxy)quinazolin-2-amine]
29 | < 5 | < 5 | CC(C)NS(=O)(=O)c1ccc(Nc2ncc3ccc(OC4CCNCC4)cc3n2)cc1 [Compound 607, N-isopropyl-4-(7-(piperidin-4-yloxy)quinazolin-2-ylamino)benzenesulfonamide]
30 | 5 to 10 | < 5 | Clc1ccc(OC2CNC2)c2nc(Nc3ccc(N4CCOCC4)cc3)ncc12 [Compound 609, 8-(azetidin-3-yloxy)-5-chloro-N-(4-morpholinophenyl)quinazolin-2-amine]
31 | 5 to 10 | < 5 | Fc1cc(Nc2ncc3c(Cl)ccc(OC4CNC4)c3n2)ccc1N1CCOCC1 [Compound 610, 8-(azetidin-3-yloxy)-5-chloro-N-(3-fluoro-4-morpholinophenyl)quinazolin-2-amine]
32 | 5 to 10 | < 5 | CC(C)NC(=O)c1ccc(Nc2ncc3c(Cl)ccc(OC4CNC4)c3n2)cc1 [Compound 612, 4-(8-(azetidin-3-yloxy)-5-chloroquinazolin-2-ylamino)-N-isopropylbenzamide]
33 | < 5 | < 5 | c1cc(N2CCOCC2)ccc1Nc1ncc2ccc(OC3CCNCC3)cc2n1 [Compound 614, N-(4-morpholinophenyl)-7-(piperidin-4-yloxy)quinazolin-2-amine]
34 | < 5 | < 5 | O=S(=O)(c1cccc(Nc2ncc3c(Cl)ccc(OC4CNC4)c3n2)c1)N1CCOCC1 [Compound 616, 8-(azetidin-3-yloxy)-5-chloro-N-(3-(morpholinosulfonyl)phenyl)quinazolin-2-amine]

— US7932262B2 (Novartis AG, priority 2006, dated 2011)
